Experimental data: paper PMC8196714, “Design, Radiosynthesis and Preliminary Biological Evaluation in Mice of a Brain-Penetrant ^18F-Labelled σ2 Receptor Ligand” (International Journal of Molecular Sciences, 2021)

Assay: Dynamic PET imaging in CD1 mice
Assay type: in vivo
Conditions: i.v.
Description: As expected by the optimal lipophilicity of [^18F]RM273 (see 2.3, [43]) the PET images and the time–activity curve obtained for the whole brain shown in Figure 6 indicate a fast permeation of the BBB with a mean standardized uptake value (SUV) of 1.3 ± 0.4 at 2.25 min p.i. (n = 4).
The biodistribution of [^18F]RM273 in mice was assessed by dynamic small animal PET (Nanoscan, Mediso, Budapest, Hungary) 60 min recordings, followed by T1 weighted (GRE, TR/TE = 15.0/2.4 ms, 252/252, FA = 25°) imaging for anatomical correlation and attenuation correction. The mice weighing 31.7 ± 3.8 g were anaesthetized with 2% isoflurane in 60% oxygen and placed on a thermostatically heated animal bed. [^18F]RM273 (7.2 ± 1.1 MBq) was injected i.v. into the lateral tail vein (bolus within 5 s) at the start of the PET-acquisition. List mode PET data were binned as a series of attenuation-corrected sinogram frames (12 × 10 s, 6 × 30 s, 5 × 60 s and 10 × 300 s) and were reconstructed by Ordered Subset Expectation Maximization (OSEM3D) with four iterations, six subsets, and a voxel size of 0.4 mm^3 (Nucline v2.01, Mediso, Hungary). The analysis of reconstructed datasets was performed with PMOD software (v4.103, PMOD Technologies LLC, Zurich, Switzerland). […]

COc1cc2c(cc1OC)CN(CCCCn1ccc3ccc([18F])nc31)CC2 [[^18F]RM273]
mean standardized uptake value (SUV), whole brain (2.25 min p.i., n = 4): 1.3 ± 0.4
peak-to-endpoint ratio, brain (60 min PET): 6.4 ± 0.9
